Laboratory results published in patent US20230128114A1, “METHODS AND COMPOSITIONS FOR TREATING OR PREVENTING AN INFLAMMATORY CONDITION” (priority 2020, published 2023).

Test: Solubility of formulations for in vivo analysis (visual observation)
Assay type: physicochemical
Source text: Cannabidiol (CBD) and hydroxychloroquine (HCQ), were purchased by Pharmacology Discovery Services Taiwan, Ltd. The formulations are summarised in Table 3.

- Solubil.: I
Structure (SMILES): C[C@@H]1C[C@H]2[C@@H]3CCC4=CC(=O)C=C[C@]4(C)[C@@]3(F)[C@@H](O)C[C@]2(C)[C@@]1(O)C(=O)CO [Dexamethasone]
